# What was measured:
# [1] = tested on: Pseudomonas aeruginosa; test: Minimum Potentiation Concentration of EPI required to achieve an 8-fold reduction in antibiotic MIC of AZT against MexAB-OprM pump system in Pseudomonas aeruginosa with 10% horse serum; format: functional
# [2] = tested on: Pseudomonas aeruginosa; test: Minimum Potentiation Concentration of EPI required to achieve an 8-fold reduction in antibiotic MIC of AZT against MexAB-OprM pump system in Pseudomonas aeruginosa without horse serum; format: functional
# [3] = tested on: Pseudomonas aeruginosa; test: Minimum Potentiation Concentration of EPI required to achieve an 8-fold reduction in antibiotic MIC of levofloxacin against MexABOprMover-expressing strain of Pseudomonas aeruginosa; format: functional
# [4] = molecular target: Albumin (Homo sapiens, UniProt P02768); test: Protein binding affinity for human serum albumin was measured
# Sequence of Albumin (P02768 whole entry): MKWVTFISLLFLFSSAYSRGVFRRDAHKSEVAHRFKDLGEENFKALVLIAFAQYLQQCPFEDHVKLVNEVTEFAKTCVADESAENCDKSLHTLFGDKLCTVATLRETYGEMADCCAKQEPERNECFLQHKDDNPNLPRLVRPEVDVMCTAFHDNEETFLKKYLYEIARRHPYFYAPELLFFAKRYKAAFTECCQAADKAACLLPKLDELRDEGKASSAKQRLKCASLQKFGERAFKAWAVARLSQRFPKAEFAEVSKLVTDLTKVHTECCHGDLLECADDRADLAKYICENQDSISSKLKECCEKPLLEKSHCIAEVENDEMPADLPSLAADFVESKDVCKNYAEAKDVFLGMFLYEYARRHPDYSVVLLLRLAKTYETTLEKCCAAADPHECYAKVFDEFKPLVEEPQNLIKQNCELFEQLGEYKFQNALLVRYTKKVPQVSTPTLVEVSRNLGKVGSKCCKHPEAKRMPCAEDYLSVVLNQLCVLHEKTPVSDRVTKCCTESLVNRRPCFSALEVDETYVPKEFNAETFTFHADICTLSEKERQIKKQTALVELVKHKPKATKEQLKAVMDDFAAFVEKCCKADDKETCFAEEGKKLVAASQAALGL
# [5] = Ratio of potentiation of AZT without serum to with serum; format: functional
# [6] = tested on: Mus musculus; test: In vivo number of survivors on day 4 after administration at the dose of 50 mg/kg along LVFX (7.5 mg/kg) in mice (Pseudomonas aeruginosa PAM1723); format: functional
# [7] = tested on: Mus musculus; test: In vivo number of survivors on day 7 after administration at the dose of 50 mg/kg along LVFX (7.5 mg/kg) in mice (Pseudomonas aeruginosa PAM1723); format: functional
# [8] = tested on: Mus musculus; test: In vivo number of survivors on day 0 after administration at the dose of 50 mg/kg along LVFX (15 mg/kg) in mice (Pseudomonas aeruginosa PAM1723); format: functional
# [9] = tested on: Mus musculus; test: In vivo number of survivors on day 0 after administration at the dose of 50 mg/kg along LVFX (7.5 mg/kg) in mice (Pseudomonas aeruginosa PAM1723); format: functional
# [10] = tested on: Mus musculus; test: In vivo number of survivors on day 1after administration at the dose of 50 mg/kg along LVFX (7.5 mg/kg) in mice (Pseudomonas aeruginosa PAM1723); format: functional
# [11] = tested on: Pseudomonas aeruginosa; test: In vivo percent survival on day 7th after administration at the dose of 50 mg/kg along LVFX (15 mg/kg) in Pseudomonas aeruginosa PAM1723; format: functional
# [12] = tested on: Pseudomonas aeruginosa; test: In vivo percent survival on day 7th after administration at the dose of 50 mg/kg along LVFX (7.5 mg/kg) in Pseudomonas aeruginosa PAM1723; format: functional
# [13] = tested on: Mus musculus; test: In vivo number of survivors on day 7 after administration at the dose of 50 mg/kg along LVFX(7.5 mg/kg) in mice (Pseudomonas aeruginosa PAM1723); format: functional
# [14] = tested on: Mus musculus; test: In vivo number of survivors on day 7 after administration at the dose of 50 mg/kg along LVFX (15 mg/kg) in mice (Pseudomonas aeruginosa PAM1723); format: functional
# [15] = tested on: Mus musculus; test: In vivo number of survivors on day 4 after administration at the dose of 50 mg/kg along LVFX (15 mg/kg) in mice (Pseudomonas aeruginosa PAM1723); format: functional
# [16] = tested on: Mus musculus; test: In vivo number of survivors on day 0 after administration at the dose of 50 mg/kg along LVFX (7.5 mg/kg) along with in mice (Pseudomonas aeruginosa PAM1723); format: functional
# [17] = tested on: Mus musculus; test: In vivo number of survivors on day 1after administration at the dose of 50 mg/kg along LVFX (15 mg/kg) in mice (Pseudomonas aeruginosa PAM1723); format: functional
# [18] = tested on: Mus musculus; test: In vivo percent survival on day 7th after administration (15 mg/kg) in mice(Pseudomonas aeruginosa PAM1723); format: functional
# [19] = tested on: Mus musculus; test: In vivo percent survival on day 7th after administration (30 mg/kg) in mice(Pseudomonas aeruginosa PAM1723); format: functional
# [20] = tested on: Mus musculus; test: In vivo percent survival on day 7th after administration (7.5 mg/kg) in mice(Pseudomonas aeruginosa PAM1723); format: functional
# [21] = tested on: Mus musculus; test: In vivo number of survivors on day 0 after administration (15 mg/kg) in mice(Pseudomonas aeruginosa PAM1723); format: functional
# [22] = tested on: Mus musculus; test: In vivo number of survivors on day 0 after administration (30 mg/kg) in mice(Pseudomonas aeruginosa PAM1723); format: functional
# [23] = tested on: Mus musculus; test: In vivo number of survivors on day 0 after administration (7.5 mg/kg) in mice(Pseudomonas aeruginosa PAM1723); format: functional
# [24] = tested on: Mus musculus; test: In vivo number of survivors on day 7 after administration (15 mg/kg) in mice(Pseudomonas aeruginosa PAM1723); format: functional
# [25] = tested on: Mus musculus; test: In vivo number of survivors on day 7 after administration (7.5 mg/kg) in mice(Pseudomonas aeruginosa PAM1723); format: functional
# [26] = tested on: Mus musculus; test: In vivo number of survivors on day 7 after administration (30 mg/kg) in mice(Pseudomonas aeruginosa PAM1723); format: functional
# [27] = tested on: Mus musculus; test: In vivo number of survivors on day 4 after administration (7.5 mg/kg) in mice(Pseudomonas aeruginosa PAM1723); format: functional
# [28] = tested on: Mus musculus; test: In vivo number of survivors on day 4 after administration (15 mg/kg) in mice Pseudomonas aeruginosa PAM1723); format: functional
# [29] = tested on: Mus musculus; test: In vivo number of survivors on day 4 after administration (30 mg/kg) in mice(Pseudomonas aeruginosa PAM1723); format: functional
# [30] = tested on: Mus musculus; test: In vivo number of survivors on day 1 after administration (15 mg/kg) in mice(Pseudomonas aeruginosa PAM1723); format: functional
# [31] = tested on: Mus musculus; test: In vivo number of survivors on day 1 after administration (30 mg/kg) in mice(Pseudomonas aeruginosa PAM1723); format: functional
# [32] = tested on: Mus musculus; test: In vivo number of survivors on day 1 after administration (7.5 mg/kg) in mice(Pseudomonas aeruginosa PAM1723); format: functional
# [33] = tested on: Pseudomonas aeruginosa; test: Minimum concentration ([…]) of inhibitor required to reduce (potentiate) the activity of antibacterial drug-LVFX for Pseudomonas aeruginosa PAM1723 by n-fold; format: functional
SMILES,MPC8 [1],MPC8 [2],MPC8 [3],Binding [4],Ratio [5],Kd [4],also measured
CC(C)c1csc(CCc2ccn3c(=O)c(C(=O)O)cnc3c2)n1,>40 µg/mL,>40 µg/mL,–,–,–,–,–
CC(C)c1csc(COc2cc3c(cc2F)c(=O)c(C(=O)O)cn3C2CC2)n1,10 µg/mL,10 µg/mL,320 µg/mL,90.5%,1,–,–
CC(C)c1csc(COc2ccn3c(=O)c(-c4nnn[nH]4)cnc3c2)n1,5 µg/mL,5 µg/mL,10 µg/mL,88.4%,1,66.4 µM,No. of survivors [6]: 4; No. of survivors [7]: 4; No. of survivors [8]: 10; No. of survivors [9]: 10; No. of survivors [10]: 4; survival at 50 mg/kg [11]: 100%; survival at 50 mg/kg [12]: 40%
CC(C)c1csc(/C=C/c2ccn3c(=O)c(-c4nnn[nH]4)cnc3c2)n1,2.5 µg/mL,2.5 µg/mL,1.25 µg/mL,90.8%,1,22 µM,No. of survivors [6]: 1; No. of survivors [13]: 1; No. of survivors [14]: 7; No. of survivors [15]: 7; No. of survivors [8]: 10; No. of survivors [16]: 10; No. of survivors [17]: 10; No. of survivors [10]: 1; survival at 50 mg/kg [11]: 70%; survival at 50 mg/kg [12]: 10%
C[C@H]1COc2c(N3CCN(C)CC3)c(F)cc3c(=O)c(C(=O)O)cn1c23.C[C@H]1COc2c(N3CCN(C)CC3)c(F)cc3c(=O)c(C(=O)O)cn1c23.O [LEVOFLOXACIN],–,–,–,–,–,–,Survival [18]: 10%; Survival [19]: 70%; Survival [20]: 0%; No. of survivors [21]: 10; No. of survivors [22]: 10; No. of survivors [23]: 10; No. of survivors [24]: 1; No. of survivors [25]: 0; No. of survivors [26]: 7; No. of survivors [27]: 0; No. of survivors [28]: 1; No. of survivors [29]: 7; No. of survivors [30]: 1; No. of survivors [31]: 9; No. of survivors [32]: 0
CCn1cc(C(=O)O)c(=O)c2ccc(/C=C/c3nc(C(C)C)cs3)cc21,10 µg/mL,10 µg/mL,>160 µg/mL,–,1,–,–
CC(C)c1csc(/C=C/c2cccc(NC(=O)Cc3ccccc3C(=O)O)c2)n1,10 µg/mL,<=0.63 ug ml-1,>60 µg/mL,> 99.9%,> 16,0.28 µM,–
CC(C)c1csc(CCc2ccn3c(=O)c(-c4nnn[nH]4)cnc3c2)n1,10 µg/mL,10 µg/mL,–,81.5%,1,327 µM,MPC8 [33]: >80 µg/mL
CC(C)c1csc(/C=C/c2ccn3c(=O)c(C(=O)O)cnc3c2)n1,40 µg/mL,80 µg/mL,>320 µg/mL,–,0.5,–,–
CC(C)c1csc(COc2ccn3c(=O)c(C(=O)O)cnc3c2)n1,80 µg/mL,40 µg/mL,320 µg/mL,–,2,–,–
CCn1cc(-c2nnn[nH]2)c(=O)c2ccc(/C=C/c3nc(C(C)C)cs3)cc21,20 µg/mL,5 µg/mL,1.25 µg/mL,–,4,–,–

# Reference: ChEMBL document CHEMBL1136458, “MexAB-OprM specific efflux pump inhibitors in Pseudomonas aeruginosa. Part 2: achieving activity in vivo through the use of alternative scaffolds” (Bioorg Med Chem Lett, 2003)
